Data reported in patent US4661510A, “α-allenic-α-amino acids as enzyme inhibitors” (priority 1985, dated 1987).

What was measured:
[1] = system: dermatophytes; test: In vitro anti-microbial activity (dermatophytes); format: cell-based
[2] = molecular target: T1, mammalian ornithine decarboxylase from rat liver (Rattus norvegicus, UniProt P09057); test: Inactivation of mammalian ornithine decarboxylase; format: biochemical; conditions: rat liver enzyme
T1 construct: mammalian ornithine decarboxylase from rat liver; from tissue; host or cells: rat liver
T1 sequence (P09057 1-461): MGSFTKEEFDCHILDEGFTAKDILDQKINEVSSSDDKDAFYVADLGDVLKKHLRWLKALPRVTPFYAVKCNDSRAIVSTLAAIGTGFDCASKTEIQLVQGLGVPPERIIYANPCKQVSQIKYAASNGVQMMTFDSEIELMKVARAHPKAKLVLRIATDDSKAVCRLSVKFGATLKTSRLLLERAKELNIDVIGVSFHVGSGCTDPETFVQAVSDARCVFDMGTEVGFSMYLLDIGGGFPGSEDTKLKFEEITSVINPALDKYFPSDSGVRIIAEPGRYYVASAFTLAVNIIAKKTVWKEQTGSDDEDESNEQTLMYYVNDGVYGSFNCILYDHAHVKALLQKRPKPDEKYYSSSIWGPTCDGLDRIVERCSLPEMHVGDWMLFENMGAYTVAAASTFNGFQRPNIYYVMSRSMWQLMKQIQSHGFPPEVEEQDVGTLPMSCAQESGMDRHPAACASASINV

[3] = molecular target: T2, bacterial ornithine decarboxylase from E. Coli (Escherichia coli, UniProt P21169); test: Inactivation of bacterial ornithine decarboxylase; format: biochemical; conditions: E. Coli enzyme
T2 construct: bacterial ornithine decarboxylase from E. Coli; host or cells: E. coli

[4] = molecular target: T3, mammalian DOPA decarboxylase from porcine kidney (Sus scrofa, UniProt P80041); test: Time dependent inactivation of DOPA decarboxylase; format: biochemical; conditions: porcine kidney enzyme
T3 construct: isolated and purified from porcine kidney; from tissue; host or cells: porcine kidney
T3 sequence (P80041 1-486): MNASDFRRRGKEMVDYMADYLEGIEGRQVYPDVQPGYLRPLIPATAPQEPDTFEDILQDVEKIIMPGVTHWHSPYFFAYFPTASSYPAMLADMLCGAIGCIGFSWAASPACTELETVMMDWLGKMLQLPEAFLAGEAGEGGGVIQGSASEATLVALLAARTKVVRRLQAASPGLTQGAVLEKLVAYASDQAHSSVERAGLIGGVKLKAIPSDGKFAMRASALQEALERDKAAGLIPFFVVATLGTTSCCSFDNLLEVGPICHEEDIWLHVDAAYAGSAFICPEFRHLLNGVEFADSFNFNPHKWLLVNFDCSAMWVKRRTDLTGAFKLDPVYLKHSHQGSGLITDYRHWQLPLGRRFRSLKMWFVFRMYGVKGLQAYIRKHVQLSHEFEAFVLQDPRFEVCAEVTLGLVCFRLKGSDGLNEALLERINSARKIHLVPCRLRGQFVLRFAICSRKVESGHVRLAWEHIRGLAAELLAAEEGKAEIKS
From the text: (§1) Mammalian DOPA decarboxylase was isolated and purified from porcine kidney by the procedure of Borri-Voltatorni et al [Eur. J. Biochem., 93, 181 (1979)] with modifications as introduced by Rudd and Thanassi [Biochemistry, 20, 7469 (1981)]. Bacterial L-phenylalanine and L-tyrosine decarboxylases ex Streptococcus faecallis were purchased from Sigma Chemical Co. as crude extracts and studied without further purification.
Time dependent inactivation of mammalian DOPA decarboxylase was monitored by incubation of enzyme with 4 to 100 molar equivalent excess of 2-amino-2-(3,4-dihydroxybenzyl)penta-3,4-dienoic acid at pH 6.8 and 37° C. At appropriate time intervals, aliquots of the mixture were withdrawn, diluted 30-fold into excess L-DOPA (2 mM) and residual DOPA decarboxylase activity determined.
DOPA decarboxylase activity was routinely measured by liquid chromatography and electrochemical detection of catecholamine products. DOPA decarboxylase (1-5 micrograms, 1-20 units) was incubated with L-DOPA (2000 micromolar, 150 microliters) and PLP (10 micromolar) in 0.1M phosphate at pH 6.8 and 37° C. After 1-10 minutes, the reaction was quenched with citric acid (2M, 25 microliters), diluted two-fold with distilled water and 10 microliter aliquots were analyzed by HPLC on a reverse phase Brownlee RP-18 column. Isocratic elution with pH 4.35 buffer [0.1M NaOAc ([…]), 0.1M citric acid (32% v/v) and methanol (15% v/v)] at a flow rate of 2.5 ml/min. afforded baseline resolution of dopamine (RT=2.8 min.) from L-DOPA (RT=1.9 min.).
Quantification of dopamine was accomplished by preoxidation of the catechol to the ortho quinone at +0.25 volts in the first analytical electrochemical cell, followed by the selective reduction of ortho quinone in the second analytical cell set at -0.25 volts. This configuration for the ESA electrochemical detector allowed highly sensitive and selective detection of catecholamines (less than 10 picomoles/injection).

[5] = molecular target: T4, bacterial tyrosine decarboxylase from Streptococcus faecallis (Enterococcus faecalis, UniProt Q838D6); test: Time dependent inactivation of tyrosine decarboxylase; format: biochemical; conditions: Streptococcus faecallis enzyme
T4 construct: purchased from Sigma Chemical Co. as crude extracts; purchased Sigma Chemical Co; host or cells: Streptococcus faecalis, crude extract
T4 sequence (Q838D6 1-620): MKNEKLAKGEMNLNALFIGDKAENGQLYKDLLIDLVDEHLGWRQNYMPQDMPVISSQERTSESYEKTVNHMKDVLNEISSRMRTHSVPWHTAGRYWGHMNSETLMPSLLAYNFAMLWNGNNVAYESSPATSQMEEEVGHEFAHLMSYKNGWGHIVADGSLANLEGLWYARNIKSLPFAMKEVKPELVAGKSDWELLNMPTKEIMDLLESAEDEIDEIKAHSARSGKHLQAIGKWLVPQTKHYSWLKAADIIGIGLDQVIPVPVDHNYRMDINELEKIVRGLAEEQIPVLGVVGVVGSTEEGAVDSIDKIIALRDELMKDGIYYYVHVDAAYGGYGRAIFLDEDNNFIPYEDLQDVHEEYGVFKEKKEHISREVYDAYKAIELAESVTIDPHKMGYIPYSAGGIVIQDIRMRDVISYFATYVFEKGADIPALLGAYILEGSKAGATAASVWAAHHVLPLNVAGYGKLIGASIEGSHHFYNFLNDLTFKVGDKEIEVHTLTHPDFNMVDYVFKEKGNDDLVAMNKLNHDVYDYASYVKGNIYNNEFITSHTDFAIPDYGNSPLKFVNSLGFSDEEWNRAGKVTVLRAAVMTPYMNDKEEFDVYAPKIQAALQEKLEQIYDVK
From the text: as §1
(§2) The time dependent inactivation of bacterial aromatic amino acid decarboxylases with 200-1000 micromolar inhibitor, e.g. 2-amino-2-(4-hydroxybenzyl)-penta-3,4-dienoic acid or 2-amino-2-benzylpenta-3,4-dienoic acid, was monitored at pH 5.5 and 37° C. Residual activity of tyrosine decarboxylase ex Streptococcus faecallis was determined by measurement of p-tyramine production at pH 5.5 and 37° C. p-Tyramine was separated by HPLC and quantified by electrochemical oxidation at +0.7 volts.

[6] = molecular target: T5, phenylalanine decarboxylase from Streptococcus faecallis (Enterococcus faecalis, UniProt Q838D6); test: Time dependent inactivation of phenylalanine decarboxylase; format: biochemical; conditions: Streptococcus faecallis enzyme
T5 construct: L-phenylalanine substrate, phenylethylamine by GC
T5 sequence (Q838D6 1-620): T4 sequence (Q838D6 1-620)
From the text: as §1, §2
Residual activity of L-phenylalanine decarboxylase ex Streptococcus faecallis with L-phenylalanine (2 mM) as substrate was meaasured by gas chromatographic analysis of phenylethylamine production. Direct injection of enzymatic reaction mixture (1-5 microliters) onto a standard glass column packed with 10% Apiezon L on Chromosorb 80/100 deactivated with 2% KOH allowed separation of aromatic amine from the reaction mixture. FID detection quantified the rate of product formation.

[7] = system: Male Sim:(S.D.)fBR rats; test: In vivo potentiation of L-DOPA induced behaviors; set-up: species or system rat; conditions: for Mean Behavior Score at 60 min.: score scale 0-6, before 200 mg/kg L-DOPA i.p.
Experimental: Male Sim:(S.D.)fBR rats weighing 180-335 g were used for these experiments. Groups of 5 rats were individually housed and received water, or various doses of either 2-amino-2-(3-hydroxybenzyl)penta-3,4-dienoic acid or 2-amino-2-(3,4-dihydroxybenzyl)penta-3,4-dienoic acid 30 l minutes before 200 mg/kg of L-DOPA, i.p. Beginning 15 minutes later, behavioral observations were made at 15 minutes intervals for 2 hours. Behavoir was scored as follows:
3=Alert with intermittent sniffing

[8] = Toxicity (acute, oral, mouse); format: in vivo; conditions: in vivo; acute, oral, mouse
Experimental: (§3) 2-amino-2-(3-hydroxybenzyl)penta-3,4-dienoic acid prepared in CMC vehicle was administered once daily to groups of 6 male mice at doses 0, 62.5, 125, 250, and 500 mg/kg. […] Therefore, the LD50 (acute, oral, mouse) for 2-amino-2-(3-hydroxybenzyl)penta-3,4-dienoic acid is greater than 500 mg/kg.

[9] = system: male mice; test: Toxicity (acute, oral, mouse); format: in vivo; conditions: male mice; 62.5, 125, 250 and 500 mg/kg in CMC vehicle; observed for 21 days
Experimental: as §3

T2 sequence (P21169 whole entry): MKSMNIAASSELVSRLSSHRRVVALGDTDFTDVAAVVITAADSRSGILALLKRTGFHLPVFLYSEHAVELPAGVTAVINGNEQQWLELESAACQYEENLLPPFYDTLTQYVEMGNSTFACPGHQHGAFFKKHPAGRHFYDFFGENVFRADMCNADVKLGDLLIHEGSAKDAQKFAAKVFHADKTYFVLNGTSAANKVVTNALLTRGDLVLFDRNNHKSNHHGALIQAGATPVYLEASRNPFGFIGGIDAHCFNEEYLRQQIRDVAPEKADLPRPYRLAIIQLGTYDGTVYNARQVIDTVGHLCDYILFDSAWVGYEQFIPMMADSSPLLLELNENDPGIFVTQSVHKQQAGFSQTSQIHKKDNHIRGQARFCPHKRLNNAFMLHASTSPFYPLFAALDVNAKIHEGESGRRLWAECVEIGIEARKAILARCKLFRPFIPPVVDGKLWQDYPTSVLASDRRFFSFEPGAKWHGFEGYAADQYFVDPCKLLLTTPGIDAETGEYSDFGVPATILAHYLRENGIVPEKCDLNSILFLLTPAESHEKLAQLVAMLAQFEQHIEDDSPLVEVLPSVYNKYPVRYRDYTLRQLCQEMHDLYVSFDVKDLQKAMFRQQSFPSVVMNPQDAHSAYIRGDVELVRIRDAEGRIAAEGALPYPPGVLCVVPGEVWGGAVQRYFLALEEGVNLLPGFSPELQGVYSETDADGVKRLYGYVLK

C=C=C(C)C(N)C(=O)O (stereo not drawn) [2-amino-3-methylpenta-3,4-dienoic acid]
activity in vitro against a spectrum of dermatophytes [1]: active

C=C=CC(N)(CCCN)C(=O)O (stereo not drawn) [2-amino-2-(3-amino-n-propyl)penta-3,4-dienoic acid]
irreversible inactivation of ornithine decarboxylase [2]: irreversible inactivators | irreversible inactivation of ornithine decarboxylase [3]: irreversible inactivators

C=C=CC(N)(Cc1cccc(O)c1)C(=O)O (stereo not drawn) [2-amino-2-(3-hydroxybenzyl)penta-3,4-dienoic acid]
irreversible inactivation of DOPA decarboxylase [4]: irreversible inactivators | irreversible inactivation of tyrosine decarboxylase [5]: irreversible inactivators | irreversible inactivation of phenylalanine decarboxylase [6]: irreversible inactivators | potentiation of the behaviors induced by L-DOPA ([7]; 3-30 mg/kg i.p. or 30-150 mg/kg s.c., 30 minutes before 200 mg/kg L-DOPA i.p.): potentiated the behaviors induced by L-DOPA | Mean Behavior Score at 60 min. ([7]; 3-30 mg/kg i.p.): 3.4 | potentiation of DOPA behaviors ([7]; 3 to 30 mg/kg i.p. or 30 to 150 mg/kg s.c.): potentiate DOPA behaviors | Mean Behavior Score at 60 min. ([7]; 30-150 mg/kg s.c.): 3.4 | LD50 at 504 h [8]: > 500 mg/kg | deaths [9]: no deaths
